Publication PMC7756341, “Liposomal FRET Assay Identifies Potent Drug‐Like Inhibitors of the Ceramide Transport Protein (CERT)” (Chemistry (Weinheim an Der Bergstrasse, Germany), 2020)
Several values for one entry are separate records, joined by “and”; a condition that tells them apart may be missing. Identical values can stand only once. Like-named read-outs stand apart in the source and are kept apart here.

Target: T1, START domain of human CERT (Homo sapiens, UniProt Q9Y5P4)
T1 construct: The START domain of hCERT was expressed has a His6-SUMO fusion protein [2]; His6-SUMO (N, cleaved yes); made in house; host or cells: E. coli BL21(DE3), pQE-based plasmid
T1 sequence (Q9Y5P4 347-598 isoform Q9Y5P4-2 limits assumed): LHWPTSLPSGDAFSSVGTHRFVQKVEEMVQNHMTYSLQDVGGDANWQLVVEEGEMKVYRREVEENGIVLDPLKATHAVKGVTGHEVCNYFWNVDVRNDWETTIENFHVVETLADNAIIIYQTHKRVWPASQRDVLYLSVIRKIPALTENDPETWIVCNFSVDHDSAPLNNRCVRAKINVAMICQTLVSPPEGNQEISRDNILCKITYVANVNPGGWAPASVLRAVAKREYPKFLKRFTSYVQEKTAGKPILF
Assay: Microscale thermophoresis (MST) binding assay
Settings: for Kd: fluorescently labeled START domain 50 nM
Experimental: 1.2 Expression and purification of the START domain of human CERT
The START domain of hCERT was expressed has a His6-SUMO fusion protein [2]. The pQE-based plasmid harboring the genetic information of His6-SUMO-START was transformed into E. coli BL21(DE3) by following the standard heat shock method. Colonies were grown on carbenicillin ([…]) and 1% glucose supplemented Luria–Bertani (LB) agar plates. A single colony was used to inoculate 20 ml of pre-culture 1 % of which was then used to inoculate 500 ml of LB medium ([…] carbenicillin, 10 mM glucose, 37 °C, 160 rpm). Upon reaching OD600 = 0.8, the culture was induced with 500 μM IPTG (isopropyl-β-d-thiogalactoside) and cells were incubated for 16 h with continuous shaking at 160 rpm. The cells were harvested by centrifugation […]
For purification of the protein, the cell pellet was re-suspended in lysis buffer (25 mM Tris/HCl, pH 7.4, 270 mM Sucrose, 1% Triton X-100, 2.5 mM dithiothreitol (DTT), Protease/Phosphatase inhibitor) on ice. Cells were disrupted using an EmulsiFlex-C3 instrument (Avestin Inc.; CANADA). The lysate was cleared by centrifugation, and the supernatant was loaded onto a Ni– NTA column (Qiagen). The protein was washed with loading buffer pH 7.4 (50 mM Na2HPO4, 50 mM NaH2PO4, 150 mM NaCl, 2,5 mM DTT) containing 20 mM imidazole and eluted with elution […]
mM imidazole. Fractions containing the protein of interest according to SDS-PAGE were pooled and digested with Ubiquitin-like-protein specific protease 1 (ULP1). The by-products (His6-SUMO and ULP1) were removed in a second IMAC step, and the target protein was subjected to a final purification by gel filtration on a superdex 200 16/600 prep grade column equilibrated with loading buffer pH 7.4 (50 mM Na2HPO4, 50 mM NaH2PO4, 150 mM NaCl, 2.5 mM DTT). The monomeric form of the START domain of hCERT was collected. The final concentration of the protein was determined via UV-Visible spectrophotometry (Varian Cary 50) at 280 nm using a calculated extinction coefficient of 50420 (M-1 cm-1).
4. Microscale Thermophoresis (MST) assays
4.1 Labeling of the START domain with a fluorophore dye
In order to perform MST assays, the START domain was coupled with a commercially available fluorophore dye (NT647 (NanoTemper Technologies, Munich, Germany)) following standard procedures provided in the manufacturer's protocol. Briefly, 10 µM of the START domain was labeled with 30 µM of the fluorophore in NHS-LB buffer kept in the dark for 30min. Any excess of the dye was removed via size exclusion chromatography on a Sephadex G25 column (GE Healthcare). The concentration of the labeled protein was determined by UV-VIS spectrophotometry at 280 nm (Varian Cary 50).
4.2 Preparation of the dilution series and MST assay
Dilution series of small-molecule ligands were prepared from stock solutions in DMSO. In case of 6B11 and 17C9, ligands were then diluted into MST buffer (50 mM Na-phosphate, 150 mM NaCl, 2.5 mM DTT, 0.05% Tween-20) to a concentration 2-fold higher than the maximum concentration used in the assay. The concentration of DMSO was kept constant in all dilutions. 16 dilutions of the ligands were prepared in micro reaction tubes by successive 1:1 dilutions with […]
solubility problems. To this end, first, a dilution series in pure DMSO was generated. The individual dilutions were then further diluted 20-fold with MST buffer to a ligand concentration 2-fold higher than its final concentration. As a final step, 10 μL of the fluorescently labeled START domain was added to all reaction tubes containing 10 μL of ligand solution. The final concentration of START domain was 50 nM. After mixing, 2-3 μL of the reaction mixture were filled into standard capillaries (Nanotemper Technologies).
MST measurements were performed with a Monolith NT.115 instrument (Nanotemper Technologies). All ligands were measured as triplicates. 40% MST excitation power was set and, depending on the labeled protein concentration used in the assay, between 5% to 20% of LED […]

Structure (SMILES) | Kd (read-out: KD) | also measured
Cc1cc(C2=NOC(c3cc(Cl)cc(Cl)c3)(C(F)(F)F)C2)ccc1C(=O)NCC(=O)NCC(F)(F)F (stereo not drawn) [20D5, Fluralaner] |  | Kd (KD): ~150 µM and 153 µM
CCCC(=O)OCOC(=O)C1=C(C)NC(C)=C(C(=O)OC)C1c1cccc(Cl)c1Cl (stereo not drawn) [6B11, Clevidipine butyrate] | ~5 µM and 2.32 µM | 
CC1=NN(c2ccc(C)c(C)c2)C(=O)/C1=N\Nc1cccc(-c2cccc(C(=O)O)c2)c1O [17C9, Eltrombopag] |  | binding confirmed by MST (labeled START domain): confirmed binding for all compounds except 17C9
CCCCCCCCCCCC(=O)NC(CO)CC(O)c1ccccc1 (stereo not drawn) [HPA-12, N-(3Hydroxy-1-hydroxymethyl-3-phenylpropyl)-dodecamide] | 0.0415 µM | Kd (listed as HPA‐12, read-out: KD): ~0.04 µM
O=C(NC1CCN(CCCCC2(C(=O)NCC(F)(F)F)c3ccccc3-c3ccccc32)CC1)c1ccccc1-c1ccc(C(F)(F)F)cc1 [8E8, lomitapide] | ~5 µM and 6.77 µM | 
